Patent US20250345283A1, “MACROPHAGE-DERIVED ENGINEERED VESICLES FOR TARGETED DELIVERY AND TREATMENT” (University of Kentucky Research Foundation, priority 2020, published 2025)

Tests used:
M2 macrophages = assay: Uptake of M1EVs by M2 macrophages in the presence of dynasore; type: cell-based, mouse; details: Dynasore 80 μM
Protocol: Dynamin activity is an integral component of both endocytosis and phagocytosis. Dynasore, a dynamin inhibitor, has been widely used to study the process of internalization of exosomes from the surface of the macrophage. […] The uptake of fluorescently labeled M1EVs by M2 BMDMs was compared in the presence and absence of dynasore. Dynasore (80 μM) was added to cultured macrophages 20 min prior to the addition of labeled vesicles. M2 macrophages were left to incubate with M1EVs for 2 h and subsequently imaged by wide-field microscopy. […] The integrated density of the fluorescence signal was calculated to compare the uptake of M1EVs by M2 macrophages. […] Similar vesicle uptake control experiments were performed in the presence of the vehicle, DMSO, at an equal concentration. There was no significant effect of DMSO on the M1EV uptake process by M2 macrophages relative to the control with no DMSO or dynasore. Macrophages are well-established phagocytotic cells.

A549 xenograft [1] = assay: In vivo targeting of DiR-labeled cell-derived vesicles, IVIS imaging; set-up: species or system mouse; details: tail vein injection, imaging 24 h postinjection
Protocol: Athymic nude mice were injected with A549 cells (NSCLC, immortalized) in the right shoulder and monitored for 3-4 weeks until measurable xenograft tumors were observed. RAW cells were cultured in vitro by standard methods. Cell-derived vesicles were manufactured by the Richards lab as described above and loaded with DiR near-infrared fluorescent dye. Prepared vesicles were administered, and mice were then imaged approximately 24, 48, and 72 hours later. Mice were anesthetized for imaging using isoflurane. Epifluorescence was measured using an IVIS Spectrum In vivo Imaging System (PerkinElmer). Vesicles were labeled with DiR near-infrared fluorescent dye, which was excited at 710 nm, with emission measured at 780 nm. Fluorescent signal intensity (i.e., total radiant efficiency) within regions of interest (ROI) were quantified using Living Image software (PerkinElmer), correcting for background fluorescence using distal site ROI within the same mouse.
RAW264.7 cells (100 million) were scraped in 40 mL of sucrose buffer solution with protease inhibitor. Vesicles were prepared as described above. The cells were labeled using DiR at 2 μM for 30 min at 37° C. Samples were injected intravenously to the mouse, through the tail vein. Approximately 1×10^11 vesicles were delivered per injection. All animal experiments were repeated three times. […]

A549 xenograft [2] = assay: In vivo delivery of DiR-labeled M1EVs to tumor xenografts, IVIS imaging; set-up: species or system mouse; details: 2×10^10 vesicles, tail vein, imaging 48 and 72 h post injection
Protocol: A549 cells (1×10^6) were injected subcutaneously into the interscapular region of 6-week-old athymic nude mice. The mice were monitored until palpable xenograft tumors developed greater than 200 mm3. M1EVs were generated using 100 million M1 macrophages by the procedure mentioned above. A NanoSight 300 multiple particle tracking system was used to determine the mean diameter and the concentration of MEVs. M1EVs were then labeled with the DiR near-infrared fluorescent dye. Briefly, 1 μL of 1 mM DiR was added to 199 μL of the vesicle resuspension so that the final concentration of DiR in the vesicle resuspension was 5 µM. DiR-labeled vesicles were separated from free DiR using a size exclusion PD MidiTrap column equilibrated with PBS. 100 μL of DiR-labeled M1EVs was then injected into the lateral tail vein of tumor-bearing mice. Isoflurane gas was used to anesthetize mice for imaging 72 h post injection using an IVIS Spectrum In vivo Imaging System (PerkinElmer) controlled with LivingImage software (PerkinElmer). Epifluorescence images were obtained using 710 nm excitation and 760 nm emission filters, f/stop number 4 and binning factor 4, with a 35 s exposure.
The free dye was separated from MEVs using PD Miniprep columns. […] After the tumor xenograft reached at least 100 mm3, 2×10^10 vesicles were injected through the tail vein of each of the three different mice. […]

A549 cells = assay: A549 cell viability (alamar blue) after cisplatin-loaded A549 vesicles or free cisplatin; type: cell-based, human; details: cisplatin 3 μg
Protocol: A549 cells (60 million) were used to generate vesicles for delivery. Cells were scraped from culture in 20 mL of sucrose buffer containing protease inhibitor. The cell solution was collected in a 50 mL conical tube and pelleted at 2000 rpm at 25° C. for 2 min. The solution was aspirated off, and the pellet was resuspended in 8 mL of 8.33 mM cisplatin in sucrose buffer solution or 20 mg cisplatin/8 mL sucrose buffer solution plus protease inhibitor. The cell solution was fragmented using N2 cavitation at 300 psi at 4° C. for 5 min. The resulting cell slurry was centrifuged at 4000 g for 10 min at 4° C. The supernatant from centrifugation was transferred to a 25 mL ultracentrifuge tube for 10,000 g centrifugation for 20 min at 4° C. The supernatant from the UCF tube was then transferred to a new 25 mL ultracentrifuge tube and centrifuged at 100,000 g for 60 min at 4° C. The pellet in the UCF tube was washed with 500 μL of sucrose solution, and the residual solution was pipetted out and discarded. Seven hundred fifty microliters of sucrose buffer solution was added to the UCF tube, and the pellet was resuspended via pipetting. Empty vesicles were generated in the exact same way except in the absence of cisplatin. A549 cells (30,000) were plated in each well of a 96-well plate and allowed to seed for 24 h. During that time, the growth media was exchanged for 250 μL of fresh HEK media containing either cisplatin in solution (4.17 mM), cisplatin-loaded vesicles, empty vesicles, or untreated media cisplatin solution in HEK media. The media was aspirated off. Two hundred microliters of Optimem was added followed by 20 μL of alamar blue. […] The plate was read using a FlexStation plate reader. […] Cell viability was determined using a fluorescence assay (alamar blue), where the fluorescence intensity scales with the population of live cells. […] Vesicles were then added to A549 cells in culture, and the cell proliferation was compared to cells alone and those in the presence of free cisplatin in solution at the same levels (3 μg) as were measured in the vesicle solution. […]

O=C(N/N=C/c1ccc(O)c(O)c1)c1cc2ccccc2cc1O [Dynasore]
effect on cell viability of macrophages (M2 macrophages): no effect on the cell viability
reduction in uptake of vesicles relative to the control (M2 macrophages; M1EVs with M2 macrophages 2 h): 64%

CCCCCCCCCCCCCCCCCCN1/C(=C/C=C/C=C/C=C/C2=[N+](CCCCCCCCCCCCCCCCCC)c3ccccc3C2(C)C)C(C)(C)c2ccccc21.[I-] [DiR]
localisation of DiR fluorescence in tumor-bearing mice (A549 xenograft [1]): nonspecific accumulation
localisation of DiR fluorescence in tumor-bearing mice (A549 xenograft [2]): nonspecific accumulation

N.N.[Cl][Pt][Cl] [free cisplatin, cisplatin]
A549 cell death (A549 cells; 24 h): no apparent cell death
A549 cell death (A549 cells; 48 h): 15%
A549 cell death (A549 cells; 72 h): 50%
